Data as given in patent US20200239530A1, “COMPOUNDS AND METHODS OF MODULATING PROTEIN DEGRADATION” (Vividion Therapeutics, Inc., priority 2017, published 2020).

Experiments:
[1] = target: T1, CEP44 Centrosomal protein of 44 kDa (Homo sapiens, UniProt Q9C0F1); assay: Cysteine liganding, probe competition; type: binding
T1 construct: 200 μL of lysate containing 5 mg/ml proteome was treated with 2 μL of 100× compound stock; endogenous in cells
T1 sequence (Q9C0F1 1-390): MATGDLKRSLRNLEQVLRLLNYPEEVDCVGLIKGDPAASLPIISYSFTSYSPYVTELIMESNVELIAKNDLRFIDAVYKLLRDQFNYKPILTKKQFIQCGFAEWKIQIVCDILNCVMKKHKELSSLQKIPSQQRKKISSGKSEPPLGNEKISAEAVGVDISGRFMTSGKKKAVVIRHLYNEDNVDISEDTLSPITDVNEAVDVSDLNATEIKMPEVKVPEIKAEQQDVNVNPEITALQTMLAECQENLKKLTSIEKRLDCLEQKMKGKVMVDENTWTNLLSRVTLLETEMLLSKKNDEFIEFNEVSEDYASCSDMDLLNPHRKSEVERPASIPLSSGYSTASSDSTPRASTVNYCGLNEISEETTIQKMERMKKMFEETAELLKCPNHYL
How it was run: (§1)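 Lysates from probe-sonicated cells in PBS (5 mg/ml proteome) were exposed to compound for 1 hr at 25° C, then labelled with desthiobiotin iodoacetamide probe (10 mM stock) for 1 hr at 25° C. Probe-tagged peptides were streptavidin-enriched after trypsin digestion.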

[2] = target: T2, DDX20 Probable ATP-dependent RNA helicase DDX20 (Homo sapiens, UniProt Q9UHI6); assay: Cysteine liganding, probe competition; type: binding
T2 construct: 200 μL of lysate containing 5 mg/ml proteome was treated with 2 μL of 100× compound stock; endogenous in cells
T2 sequence (Q9UHI6 1-824): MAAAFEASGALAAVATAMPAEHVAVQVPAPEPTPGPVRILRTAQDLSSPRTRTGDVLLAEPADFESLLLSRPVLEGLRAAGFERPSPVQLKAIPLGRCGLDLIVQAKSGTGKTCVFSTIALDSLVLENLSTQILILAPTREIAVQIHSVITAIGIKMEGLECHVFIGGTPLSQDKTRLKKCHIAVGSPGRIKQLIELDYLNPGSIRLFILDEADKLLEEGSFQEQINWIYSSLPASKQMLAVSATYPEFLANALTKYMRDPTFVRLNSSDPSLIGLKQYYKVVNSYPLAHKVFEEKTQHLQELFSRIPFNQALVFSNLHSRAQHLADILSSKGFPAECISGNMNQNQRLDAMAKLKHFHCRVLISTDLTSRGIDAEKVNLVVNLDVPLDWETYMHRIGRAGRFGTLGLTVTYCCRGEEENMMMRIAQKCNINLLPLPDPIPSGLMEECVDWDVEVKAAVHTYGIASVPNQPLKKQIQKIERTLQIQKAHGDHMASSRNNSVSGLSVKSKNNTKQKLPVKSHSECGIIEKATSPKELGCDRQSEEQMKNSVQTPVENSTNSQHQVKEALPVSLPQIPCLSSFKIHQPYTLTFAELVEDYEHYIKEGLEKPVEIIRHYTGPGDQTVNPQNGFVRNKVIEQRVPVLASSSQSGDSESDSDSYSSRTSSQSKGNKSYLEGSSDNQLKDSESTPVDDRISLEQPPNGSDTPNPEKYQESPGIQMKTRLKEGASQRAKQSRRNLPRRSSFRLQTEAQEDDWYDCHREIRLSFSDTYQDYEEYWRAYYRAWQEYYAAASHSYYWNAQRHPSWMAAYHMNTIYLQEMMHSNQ
How it was run: as §1

Structure (SMILES)	Liganded ([1]; CEP44 Res# 28, uniprot Q9C0F1)	Liganded ([2]; DDX20 Res# 577, uniprot Q9UHI6)	100 ave ([1]; uniprot Q9C0F1)	500 ave ([1]; uniprot Q9C0F1)	100 Max ([1]; uniprot Q9C0F1, in % (unit assumed))	500 Max ([1]; uniprot Q9C0F1, unit assumed)	100 Max ([2]; uniprot Q9UHI6)	100 ave ([2]; uniprot Q9UHI6)	500 Max ([2]; uniprot Q9UHI6)	500 ave ([2]; uniprot Q9UHI6)
COc1ccc2c(c1)CCCN2C(=O)CCl [KB02]	YES	YES								
O=C(CCl)Nc1cc(C(F)(F)F)cc(C(F)(F)F)c1 [KBO3]			14.85	69.9	14.85	69.9%	0.85	−6.7225	37.31	31.49
